Values of other authors as cited in US9428497B2, “Precursor compounds for the radiosynthesis of [18F] norchloro-fluorohomoepibatidine” (priority 2011, dated 2016).
Read-outs that look alike come from different tables or passages of the source.

Legend:
[1] = piglets; compared with 2-[18F]F-A-85380
[2] = mice; compared with 2-[18F]F-A-85380

In the case of `[18F]c1ccc(C2CC3CCCC2N3)cn1` (single isomer, unassigned; (-)) [(−)-[^18F]NCFHEB, (−)-[^18F]norchloro-fluoro-homoepibatidine], the “cerebral uptake relative to 2-[18F]F-A-85380” value [1] is given as “more than two times higher” and the “cerebral uptake relative to 2-[18F]F-A-85380” value [2] is given as “more than two times higher”.
